Data as given in ChEMBL document CHEMBL1138696, “Evans Blue and other dyes as protein tyrosine phosphatase inhibitors” (Bioorg Med Chem Lett, 2004).

Columns and labels:
[1] = Inhibition of human Leukocyte Antigen Related(LAR) protein tyrosine phosphatase D1
[2] = target: T1, Tyrosine-protein phosphatase non-receptor type 1 (Homo sapiens, UniProt P18031); assay: Inhibition of human PTPase 1B
T1 sequence (P18031 whole entry): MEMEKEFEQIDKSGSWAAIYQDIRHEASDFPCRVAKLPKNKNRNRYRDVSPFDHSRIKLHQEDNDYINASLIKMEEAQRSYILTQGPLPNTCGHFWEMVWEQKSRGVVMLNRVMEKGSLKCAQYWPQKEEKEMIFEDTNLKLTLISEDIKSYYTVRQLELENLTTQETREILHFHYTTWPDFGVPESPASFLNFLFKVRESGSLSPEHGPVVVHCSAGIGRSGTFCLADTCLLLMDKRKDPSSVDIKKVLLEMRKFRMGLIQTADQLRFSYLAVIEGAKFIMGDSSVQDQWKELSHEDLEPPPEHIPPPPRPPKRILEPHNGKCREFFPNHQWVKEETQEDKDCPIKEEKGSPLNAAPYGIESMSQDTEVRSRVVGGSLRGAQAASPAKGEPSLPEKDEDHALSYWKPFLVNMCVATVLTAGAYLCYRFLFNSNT

[3] = target: T2, Tyrosine-protein phosphatase 1 (Saccharomyces cerevisiae S288c, UniProt P25044); assay: Inhibitory activity against Saccharomyces cerevisiae Tyrosine phosphatase 1
T2 sequence (P25044 whole entry): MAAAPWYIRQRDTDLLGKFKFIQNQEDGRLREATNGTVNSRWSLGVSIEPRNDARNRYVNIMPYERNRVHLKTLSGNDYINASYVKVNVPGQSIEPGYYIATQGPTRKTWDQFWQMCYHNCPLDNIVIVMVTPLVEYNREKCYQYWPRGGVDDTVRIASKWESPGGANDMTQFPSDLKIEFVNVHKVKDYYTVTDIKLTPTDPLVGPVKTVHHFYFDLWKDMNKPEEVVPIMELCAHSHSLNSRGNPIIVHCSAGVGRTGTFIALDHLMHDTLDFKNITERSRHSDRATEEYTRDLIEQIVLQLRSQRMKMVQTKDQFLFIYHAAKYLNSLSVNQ

Row | Compound | IC50 [1] | IC50 [2] | IC50 [3]
1 | C/C(=C1/C=CC(=O)C(C(=O)O)=C1)c1ccc(O)c(C(=O)O)c1 | > 1000 µM | 5.2 µM | 30 µM
2 | O=C(O)c1cc(N=Nc2ccc([N+](=O)[O-])cc2)ccc1O | > 1000 µM | 210 µM | 630 µM
3 | Cc1[nH]n(-c2ccccc2)c(=O)c1N=Nc1c(O)cc(S(=O)(=O)O)c2ccccc12 | 660 µM | 150 µM | 140 µM
4 | O=C1c2ccccc2C(=O)c2c1cc(S(=O)(=O)O)c(O)c2O [Alizarin Red S] | 82 µM | 40 µM | 48 µM
5 | Cc1c(C(=O)O)c(O)cc2c1C(=O)c1c(O)c([C@H]3O[C@H](CO)[C@@H](O)[C@H](O)[C@H]3O)c(O)c(O)c1C2=O [CARMINE] | > 1000 µM | 26 µM | 15 µM
6 | O=S(=O)(O)c1cc(O)c2c(O)cc(S(=O)(=O)O)cc2c1 [CHROMOTROPATE] | 570 µM | 9.7 µM | 6.5 µM
7 | O=S(=O)(O)c1cc(S(=O)(=O)O)c2c(N=Nc3c(O)cc(S(=O)(=O)O)c4ccccc34)c(O)c(S(=O)(=O)O)cc2c1 [E126] |  | 460 µM | 110 µM
8 | COc1cc(S(=O)(=O)O)c(C)cc1N=Nc1c(O)ccc2cc(S(=O)(=O)O)ccc12 [E129] | 90 µM | 33 µM | 410 µM
9 | Cc1cc(-c2ccc(/N=N/c3ccc4c(S(=O)(=O)O)cc(S(=O)(=O)O)c(N)c4c3O)c(C)c2)ccc1/N=N/c1ccc2c(S(=O)(=O)O)cc(S(=O)(=O)O)c(N)c2c1O [EVANS BLUE] | 61 µM | 1.3 µM | 1.2 µM
10 | O=C1OC2(c3ccc(O)cc3Oc3cc(O)ccc32)c2ccccc21 [FLUORESCEIN] | > 1000 µM | 600 µM | 850 µM
11 | O=C(O)c1cc2ccccc2c(Cc2c(O)c(C(=O)O)cc3ccccc23)c1O [PAMOIC ACID] | > 1000 µM | 310 µM | > 1000 µM
12 | CC(C)=CC[C@@H](O)C1=CC(=O)c2c(O)ccc(O)c2C1=O [SHIKONIN] | > 1000 µM | 25 µM | 
13 | Cc1cc(-c2ccc(/N=N/c3c(S(=O)(=O)O)cc4cc(S(=O)(=O)O)cc(N)c4c3O)c(C)c2)ccc1/N=N/c1c(S(=O)(=O)O)cc2cc(S(=O)(=O)O)cc(N)c2c1O [TRYPAN BLUE] | 170 µM | 3.9 µM | 7.4 µM
